Test results reported in patent US10195185B2, “3-(1H-imidazo[4,5-C]pyridin-2-yl)-1H-pyrazolo[4,3-B]pyridines and therapeutic uses thereof” (Samumed, LLC, priority 2015, dated 2019).

Legend:
SW480 colon cancer cells = assay: Cell viability assay (CellTiter-Blue), four days; format: cell-based; details: Homo sapiens, 96 h; for EC50: CellTiter-Blue cell viability; for inhibition at 10 µM: read-out: percent inhibition at 10 μM (given for EC50 of >10 μM)
Protocol: Representative compounds were screened using the following assay procedure to assess the effect on cell viability as described below.
Each compound was dissolved in DMSO as a 10 mM stock and used to prepare compound source plates. Serial dilution (1:3, 8-point dose-response curves from 10 μM to 0.0045 μM) and compound transfer was performed using the ECHO 550 (Labcyte, Sunnyvale, Calif.) into 96-well clear bottom, black-walled plates (Corning-Costar).
Approximately 2×10^3 SW480 colon cancer cells were seeded into each well and allowed to incubate in the presence or absence of compound for four days at 37° C./5% CO2. Eight replicates of DMSO-treated cells served as controls and cells treated with compound were performed in duplicate.
After incubation, 20 μL of CellTiter-Blue (Promega) was added to each well allowed to incubate for approximately 3 hours. This reagent was a buffered solution which contains resazurin, metabolically active cells were able to reduce rezarurin (blue) into resorufin (pink) which was highly fluorescent. This measured fluorescence was used as a readout for cell viability.
After incubation, the plates were read at Ex 560 nm Em 590 nm (Cytation 3, BioTek). Dose-response curves were generated and EC50 concentration values were calculated using non-linear regression curve fit in the GraphPad Prism (San Diego, Calif.) or Dotmatics' Studies Software (Bishops Stortford, UK). For EC50 of >10 μM, the percent inhibition at 10 μM is provided.

[1] = system: Wnt activity (Wnt-responsive human Sp5 promoter, TCF/LEF binding sites) in SW480 colon carcinoma cells; assay: Wnt activity screening assay: Sp5-Luc luciferase reporter gene in SW480 cells; format: cell-based; details: for EC50: 10-point dose-response from 10 μM, incubated overnight; for inhibition at 10 µM: given for EC50 of >10 μM, read-out: percent inhibition at 10 μM
From the text: The screening assay for Wnt activity is described as follows. Reporter cell lines can be generated by stably transducing cancer cell lines (e.g., colon cancer) or primary cells (e.g., IEC-6 intestinal cells) with a lentiviral construct that includes a Wnt-responsive promoter driving expression of the firefly luciferase gene.
SW480 colon carcinoma cells were transduced with a lentiviral vector expressing luciferase with a human Sp5 promoter consisting of a sequence of eight TCF/LEF binding sites. SW480 cells stably expressing the Sp5-Luc reporter gene and a hygromycin resistance gene were selected by treatment with 150 μg/mL of hygromycin for 7 days. These stably transduced SW480 cells were expanded in cell culture and used for all further screening activities. Each compound was dissolved in DMSO as a 10 mM stock and used to prepare compound source plates. Serial dilution (1:3, 10-point dose-response curves starting from 10 μM) and compound transfer was performed using the ECHO 550 (Labcyte, Sunnyvale, Calif.) into 384-well white solid bottom assay plates (Greiner Bio-One) with appropriate DMSO backfill for a final DMSO concentration of 0.1%. For Sp5-Luc reporter gene assays, the cells were plated at 4,000 cells/well in 384-well plates with medium containing 1% fetal bovine serum and incubated overnight at 37° C. and 5% CO2. Following incubation, 20 μl of BrightGlo luminescence reagent (Promega) was added to each well of the 384-well assay plates. The plates were placed on an orbital shaker for 2 min and then luminescence was quantified using the Envision (Perkin Elmer) plate reader. Readings were normalized to DMSO only treated cells, and normalized activities were utilized for EC50 calculations using the dose-response log (inhibitor) vs. response-variable slope (four parameters) nonlinear regression feature available in GraphPad Prism 5.0 (or Dotmatics). For EC50 of >10 μM, the percent inhibition at 10 μM is provided.

SMILES | EC50 (SW480 colon cancer cells) | EC50 [1] | inhibition at 10 µM [1] | inhibition at 10 µM (SW480 colon cancer cells)
c1ccc(CNCc2cncc(-c3ccc4[nH]nc(-c5nc6c(-c7ccsc7)nccc6[nH]5)c4n3)c2)cc1 [Compound 304, N-Benzyl-1-(5-(3-(4-(thiophen-3-yl)-1H-imidazo[4,5-c]pyridin-2-yl)-1H-pyrazolo [4,3-b]pyridin-5-yl)pyridin-3-yl)methanamine] | 3.91 µM | 3.65 µM | – | –
Cc1ccc(-c2nccc3[nH]c(-c4n[nH]c5ccc(C6=CCNCC6)nc45)nc23)s1 [Compound 730, 3-(4-(5-Methylthiophen-2-yl)-1H-imidazo[4,5-c]pyridin-2-yl)-5-(1,2,3,6-tetrahydropyridin-4-yl)-1H-pyrazolo[4,3-b]pyridine] | 5.26 µM | > 10 µM | 43.4% | –
Cn1cc(-c2ccc3[nH]nc(-c4nc5c(-c6cccs6)nccc5[nH]4)c3n2)cn1 [Compound 700, 5-(1-Methyl-1H-pyrazol-4-yl)-3-(4-(thiophen-2-yl)-1H-imidazo[4,5-c]pyridin-2-yl)-1H-pyrazolo[4,3-b]pyridine] | 0.775 µM | 0.456 µM | – | –
O=C(Cc1ccccc1)Nc1cncc(-c2ccc3[nH]nc(-c4nc5cnccc5[nH]4)c3n2)c1 [Compound 262, N-(5-(3-(1H-imidazo[4,5-c]pyridin-2-yl)-1H-pyrazolo[4,3-b]pyridin-5-yl)pyridin-3-yl)-2-phenylacetamide] | > 10 µM | > 10 µM | 12.9% | 2.2%
NC1CN(c2cncc(-c3ccc4[nH]nc(-c5nc6c(-c7ccc(Cl)s7)nccc6[nH]5)c4n3)n2)C1 [Compound 1068, 1-(6-(3-(4-(5-Chlorothiophen-2-yl)-1H-imidazo[4,5-c]pyridin-2-yl)-1H-pyrazolo[4,3-b]pyridin-5-yl)pyrazin-2-yl)azetidin-3-amine] | > 10 µM | 4.2 µM | – | 48.2%
c1cc2[nH]c(-c3n[nH]c4ccc(-c5cncc(CNCC6CCCC6)c5)nc34)nc2c(-c2ccoc2)n1 [Compound 333, 1-Cyclopentyl-N-((5-(3-(4-(furan-3-yl)-1H-imidazo[4,5-c]pyridin-2-yl)-1H-pyrazolo [4,3-b]pyridin-5-yl)pyridin-3-yl)methyl)methanamine] | 3.42 µM | 3.82 µM | – | –
O=C(CC1CCNCC1)Nc1cncc(-c2ccc3[nH]nc(-c4nc5c(-c6ccsc6)nccc5[nH]4)c3n2)c1 [Compound 673, 2-(Piperidin-4-yl)-N-(5-(3-(4-(thiophen-3-yl)-1H-imidazo[4,5-c]pyridin-2-yl)-1H-pyrazolo[4,3-b]pyridin-5-yl)pyridin-3-yl)acetamide] | > 10 µM | > 10 µM | 22.6% | 6.6%
c1cc2[nH]c(-c3n[nH]c4ccc(-c5cncc(OC6CCNCC6)c5)nc34)nc2cn1 [Compound 656, 3-(1H-Imidazo[4,5-c]pyridin-2-yl)-5-(5-(piperidin-4-yloxy)pyridin-3-yl)-1H-pyrazolo[4,3-b]pyridine] | > 10 µM | > 10 µM | 15.4% | 10.9%
Oc1cncc(-c2ccc3[nH]nc(-c4nc5cnccc5[nH]4)c3n2)c1 [Compound 661, 5-(3-(1H-Imidazo[4,5-c]pyridin-2-yl)-1H-pyrazolo[4,3-b]pyridin-5-yl) pyridin-3-ol] | > 10 µM | > 10 µM | 10.7% | 13.5%
COc1cccc(-c2nccc3[nH]c(-c4n[nH]c5ccc(-c6cncc(OC7CCNCC7)c6)nc45)nc23)c1 [Compound 1025, 3-(4-(3-Methoxyphenyl)-1H-imidazo[4,5-c]pyridin-2-yl)-5-(5-(piperidin-4-yloxy)pyridin-3-yl)-1H-pyrazolo[4,3-b]pyridine] | > 10 µM | > 10 µM | 15.1% | 12.7%
c1cc2[nH]c(-c3n[nH]c4ccc(-c5cn[nH]c5)nc34)nc2cn1 [Compound 651, 3-(1H-Imidazo[4,5-c]pyridin-2-yl)-5-(1H-pyrazol-4-yl)-1H-pyrazolo[4,3-b]pyridine] | > 10 µM | > 10 µM | 22.3% | 13.5%
CN1CCN(c2nccc3[nH]c(-c4n[nH]c5ccc(-c6cncc(NC(=O)C7CCCC7)c6)nc45)nc23)CC1 [Compound 246, N-(5-(3-(4-(4-Methylpiperazin-1-yl)-1H-imidazo[4,5-c]pyridin-2-yl)-1H-pyrazolo [4,3-b]pyridin-5-yl)pyridin-3-yl)cyclopentanecarboxamide] | > 10 µM | > 10 µM | 15% | 0%
CN1CCN(c2nccc3[nH]c(-c4n[nH]c5ccc(-c6cnccn6)nc45)nc23)CC1 [Compound 648, 3-(4-(4-Methylpiperazin-1-yl)-1H-imidazo[4,5-c]pyridin-2-yl)-5-(pyrazin-2-yl)-1H-pyrazolo[4,3-b]pyridine] | > 10 µM | > 10 µM | 1% | 5.4%
Fc1ccccc1-c1nccc2[nH]c(-c3n[nH]c4ccc(-c5cncc(CNCC6CCCC6)c5)nc34)nc12 [Compound 81, 1-Cyclopentyl-N-((5-(3-(4-(2-fluorophenyl)-1H-imidazo[4,5-c]pyridin-2-yl)-1H-pyrazolo[4,3-b]pyridin-5-yl)pyridin-3-yl)methyl)methanamine] | 1.08 µM | 1.11 µM | – | –
O=C(Nc1cncc(-c2ccc3[nH]nc(-c4nc5c(-c6ccsc6)nccc5[nH]4)c3n2)c1)c1ccccc1 [Compound 291, N-(5-(3-(4-(Thiophen-3-yl)-1H-imidazo[4,5-c]pyridin-2-yl)-1H-pyrazolo [4,3-b]pyridin-5-yl)pyridin-3-yl)benzamide] | > 10 µM | > 10 µM | 3.3% | 2%
Cn1cc(-c2ccc3[nH]nc(-c4nc5c(N6CCCCC6)nccc5[nH]4)c3n2)c(CO)n1 [Compound 1133, (1-Methyl-4-(3-(4-(piperidin-1-yl)-1H-imidazo[4,5-c]pyridin-2-yl)-1H-pyrazolo [4,3-b]pyridin-5-yl)-1H-pyrazol-3-yl)methanol] | > 10 µM | > 10 µM | 49.6% | 28.2%
O=C(Nc1cncc(-c2ccc3[nH]nc(-c4nc5c(-c6ccncc6)nccc5[nH]4)c3n2)c1)C1CCCCC1 [Compound 135, N-(5-(3-(4-(pyridin-4-yl)-1H-imidazo[4,5-c]pyridin-2-yl)-1H-pyrazolo[4,3-b]pyridin-5-yl)pyridin-3-yl)cyclohexanecarboxamide] | > 10 µM | > 10 µM | 2.8% | 1%
COc1cccc(-c2nccc3[nH]c(-c4n[nH]c5ccc(-c6cn[nH]c6)nc45)nc23)c1 [Compound 1020, 3-(4-(3-Methoxyphenyl)-1H-imidazo[4,5-c]pyridin-2-yl)-5-(1H-pyrazol-4-yl)-1H-pyrazolo[4,3-b]pyridine] | > 10 µM | > 10 µM | 5.7% | 6.4%
Cn1cc(-c2ccc3[nH]nc(-c4nc5c(-c6ccc7c(c6)OCO7)nccc5[nH]4)c3n2)c(CO)n1 [Compound 1151, (4-(3-(4-(Benzo[d][1,3]dioxol-5-yl)-1H-imidazo[4,5-c]pyridin-2-yl)-1H-pyrazolo [4,3-b]pyridin-5-yl)-1-methyl-1H-pyrazol-3-yl)methanol] | > 10 µM | > 10 µM | 33.9% | 3.7%
O=C(Nc1cncc(-c2ccc3[nH]nc(-c4nc5c(N6CCCCC6)nccc5[nH]4)c3n2)c1)C1CC1 [Compound 188, N-(5-(3-(4-(Piperidin-1-yl)-1H-imidazo[4,5-c]pyridin-2-yl)-1H-pyrazolo [4,3-b]pyridin-5-yl)pyridin-3-yl)cyclopropanecarboxamide] | > 10 µM | > 10 µM | 19% | 10.5%
